Source: patent publication US9145391B2, “Bipyridylaminopyridines as Syk inhibitors” (Merck Sharp & Dohme Corp., priority 2011, dated 2015)

Target: recombinant human GST-Syk (Homo sapiens (Human), UniProt P43405)
Experiment: Homogeneous Time-Resolved Fluorescence (HTRF) assay for the recombinant human Syk enzyme
Type: biochemical
Details: recombinant human GST-Syk 5 pM, ATP 25 μM, read-out: rhSyk IC50
Experimental: Syk inhibition may be determined using the following assay protocol: Homogeneous Time-Resolved Fluorescence (HTRF) Assay for the Recombinant Human Syk Enzyme: A recombinant GST-hSyk fusion protein was used to measure potency of compounds to inhibit human Syk activity. […] To initiate the reaction the biotinylated substrate peptide (250 nM final concentration) that contains the phosphorylation site for Syk was added with magnesium (5 mM final concentration) and ATP (25 μM final concentration). […] Final volume of the quenching solution was 10 μL.

Row | SMILES | IC50
1 | Cc1cc(Nc2cc(C(F)(F)F)ccn2)nc(-c2ccc(NC3CCC(C(=O)O)C(C)(C)C3)nc2)c1 (single isomer, unassigned) [Example 3-4] | < 0.5 nM
2 | Cc1cc(Nc2cc(C(F)(F)F)ccn2)nc(-c2ccc(NC3CCNC3=O)nc2)c1 (stereo not shown) [Example 2-9] | 4 nM
3 | Cc1cc(Nc2cc(C(F)(F)F)ccn2)nc(-c2ccc(NC3CCN(C(=O)c4ccc5nc(C)c(C)nc5c4)CC3)nc2)c1 [Example 4-97] | 2 nM
4 | Cc1cc(Nc2cc(C(F)(F)F)ccn2)nc(-c2ccc(NC3CCN(C(=O)c4cccc(O)c4)CC3)nc2)c1 [Example 4-101] | 8 nM
5 | Cc1cc(Nc2cc(C(F)(F)F)ccn2)nc(-c2ccc(NC3CCN(C(=O)c4ccc(C(F)(F)F)cc4)CC3)nc2)c1 [Example 4-72] | 56 nM
6 | Cc1cc(Nc2cc(C(F)(F)F)ccn2)nc(-c2ccc(C(O)(C3CCC(C(=O)O)CC3)C3CC3)nc2)c1 (stereo not shown) [Example 1-31] | < 0.5 nM
7 | Cc1cc(Nc2cc(C(F)(F)F)ccn2)nc(-c2ccc(NC3CCN(C(=O)c4cccc5[nH]ncc45)CC3)nc2)c1 [Example 4-120] | 9 nM
8 | COc1ccc2cc(CC(=O)N3CCC(Nc4ccc(-c5cc(C)cc(Nc6cc(C(F)(F)F)ccn6)n5)cn4)CC3)ccc2c1 [Example 4-53] | 78 nM
9 | Cc1cc(Nc2cc(C(F)(F)F)ccn2)nc(-c2ccc(NC3CCN(C(=O)Cc4ccc(C#N)cc4)CC3)nc2)c1 [Example 4-91] | 4 nM
10 | Cc1cc(Nc2cc(C(F)(F)F)ccn2)nc(-c2ccc(NC3CCN(C(=O)c4ccc5sc(C)nc5c4)CC3)nc2)c1 [Example 4-14] | 6 nM
11 | Cc1cc(Nc2cc(C(F)(F)F)ccn2)nc(-c2ccc(NC3CCN(C(=O)c4cnc5ccccn45)CC3)nc2)c1 [Example 4-63] | 7 nM
12 | CC(=O)N[C@H]1CCN(c2ccc(-c3cc(C)cc(Nc4cc(C(F)(F)F)ccn4)n3)cn2)C1 [Example 6, N-[(3S)-1-(4-methyl-6-{[4-(trifluoromethyl)pyridin-2-yl]amino}-2,3′-bipyridin-6′-yl)pyrrolidin-3-yl]acetamide] | 17 nM
13 | Cc1ccnc(Nc2cc(C)cc(-c3ccnc(F)c3)n2)c1 [Example 1-3] | 135 nM
14 | Cc1cc(Nc2cc(C(F)(F)F)ccn2)nc(-c2ccc(NC3CCN(C(=O)c4ccccc4Cl)CC3)nc2)c1 [Example 4-71] | 21 nM
15 | COc1cccc(C(=O)N2CCC(Nc3ccc(-c4cc(C)cc(Nc5cc(C(F)(F)F)ccn5)n4)cn3)CC2)c1 [Example 4-109] | 6 nM
16 | Cc1cc(Nc2cc(C(F)(F)F)ccn2)nc(-c2ccc(NC3CCN(C(=O)c4cnc5ccc(F)cc5c4)CC3)nc2)c1 [Example 4, (6-Fluoroquinolin-3-yl)(4-(4-methyl-6-(4-(trifluoromethyl)pyridin-2-ylamino)-2,3′-bipyridin-6′-ylamino)piperidin-1-yl)methanone] | 8 nM

Row | SMILES | IC50
17 | Cc1cc(Nc2cc(C(F)(F)F)ccn2)nc(-c2ccc(NC3CCC(C(=O)O)C(C)C3)nc2)c1 (single isomer, unassigned) [Example 3-3] | 1 nM
18 | Cc1cc(Nc2cc(C(F)(F)F)ccn2)nc(-c2ccc(C3(O)CCC(C(=O)O)C(C)(C)C3)nc2)c1 (stereo not shown) [Example 1-26] | 1 nM
19 | Cc1cc(Nc2cc(C(F)(F)F)ccn2)nc(-c2ccc(NC3CCN(C(=O)Cc4cccc(C(F)(F)F)c4)CC3)nc2)c1 [Example 4-96] | 103 nM
20 | Cc1cc(Nc2cc(C(F)F)ccn2)nc(-c2ccc(C(C)(F)[C@H]3CC[C@H](C(=O)O)CC3)nc2)c1 (single isomer, unassigned) [Example 13, trans-4-(1R or 1S)-(6-(4-(Difluoromethyl)pyridin-2-ylamino)-4-methyl-2,3′-bipyridin-6′-yl)-1-fluoroethyl)cyclohexanecarboxylic acid] | < 0.5 nM
21 | Cc1cc(Nc2cc(C(F)(F)F)ccn2)nc(-c2ccc(NC3CCN(C(=O)c4ccc5c(c4)C(=O)NC5)CC3)nc2)c1 [Example 4-4] | 1 nM
22 | Cc1cc(Nc2cc(C(F)(F)F)ccn2)nc(-c2ccc(N3CCC(NC(=O)OC(C)(C)C)C3)nc2)c1 (stereo not shown) [Example 2-3] | 248 nM
23 | CC(=O)Nc1cccc(C(=O)N2CCC(Nc3ccc(-c4cc(C)cc(Nc5cc(C(F)(F)F)ccn5)n4)cn3)CC2)c1 [Example 4-58] | 4 nM
24 | Cc1cc(Nc2cc(C(F)F)ccn2)nc(-c2ccc(C3(O)CCC3)nc2)c1 [Example 1-13] | 5 nM
25 | CCOC(=O)C1CCC(O)(c2ccc(-c3cc(C)cc(Nc4cc(C(F)(F)F)ccn4)n3)cn2)CC1 (stereo not shown) [Example 1-10] | 45 nM
26 | Cc1cc(Nc2cc(C(F)F)ccn2)nc(-c2ccc(C(C)(O)[C@H]3CC[C@H](C(=O)O)CC3)nc2)c1Br (single isomer, unassigned) [Example 15, trans-4-((1R or 1S)-(3-Bromo-6-(4-(difluoromethyl)pyridin-2-ylamino)-4-methyl-2,3′-bipyridin-6′-yl)-1-hydroxyethyl)cyclohexanecarboxylic acid] | 1 nM
27 | Cc1cc(Nc2cc(C(F)(F)F)ccn2)nc(-c2ccc(N3CCC4CCC(C(=O)O)CC4C3)nc2)c1 (stereo not shown) [Example 2-29] | 6 nM
28 | Cc1cc(Nc2cc(C(F)(F)F)ccn2)nc(-c2ccc(C[C@H]3CC[C@H](C(=O)O)CC3)nc2)c1 [Example 10 trans isomer, trans-4-[(4-methyl-6-{[4-(trifluoromethyl)pyridin-2-yl]amino}-2,3′-bipyridin-6′-yl)methyl]cyclohexanecarboxylic acid] | < 0.5 nM
29 | Cc1cc(Nc2cc(C(F)(F)F)ccn2)nc(-c2ccc(NC3CCN(C(=O)c4cccc5c4-c4ccccc4C5)CC3)nc2)c1 [Example 4-117] | 141 nM
30 | Cc1cc(Nc2cc(C(F)(F)F)ccn2)nc(-c2ccc(NC3CCN(C(=O)c4ccc5[nH]ncc5c4)CC3)nc2)c1 [Example 4-98] | 5 nM
31 | Cc1cc(Nc2cc(C(F)(F)F)ccn2)nc(-c2ccc(NC3CCN(C(=O)COc4ccccc4-c4ccccc4)CC3)nc2)c1 [Example 4-25] | 209 nM
32 | Cc1cc(Nc2cc(C(F)(F)F)ccn2)nc(-c2ccc(NC3CCN(C(=O)c4ccc5nc(C)sc5c4)CC3)nc2)c1 [Example 4-78] | 4 nM

Now from value to compound:

Row | IC50 | SMILES
33 | 6 nM | Cc1cc(Nc2cc(C(F)(F)F)ccn2)nc(-c2ccc(NC3CCNCC3)nc2)c1 [Example 5-2]
34 | 1 nM | Cc1cc(Nc2cc(C(F)F)ccn2)nc(-c2ccc(C(C)(O)[C@H]3CC[C@@H](C(=O)O)CC3)nc2)c1 (single isomer, unassigned) [Example 12-3, cis-4-[(1R or 1S)-(6-{[4-(difluoromethyl)pyridin-2-yl]amino}-4-methyl-2,3′-bipyridin-6′-yl)-1-hydroxyethyl]cyclohexanecarboxylic acid]
35 | 1 nM | Cc1cc(Nc2cc(C(F)F)ccn2)nc(-c2ccc(C(C)(O)C3CCC(C(=O)O)CC3)nc2)c1 (single isomer, unassigned) [Example 12-1, trans-4-[(1R or 1S)-(6-{[4-(difluoromethyl)pyridin-2-yl]amino}-4-methyl-2,3′-bipyridin-6′-yl)-1-hydroxyethyl]cyclohexanecarboxylic acid]
36 | 140 nM | Cc1cc(Nc2cc(C(F)F)ccn2)nc(-c2ccc(C(C)(O)[C@H]3CC[C@H](C(=O)OC(C)OC(=O)OC4CCCCC4)CC3)nc2)c1 (single isomer, unassigned) [Example 20-9, 1-{[(cyclohexyloxy)carbonyl]oxy}ethyl trans-4-[(1R or 1S)-1-(6-{[4-(difluoromethyl)pyridin-2-yl]amino}-4-methyl-2,3′-bipyridin-6′-yl)-1-hydroxyethyl] cyclohexanecarboxylate]
37 | 19 nM | Cc1cc(Nc2cc(C(F)F)ccn2)nc(-c2ccc(C(C)(O)[C@H]3CC[C@H](C(=O)OCOC(=O)OC(C)C)CC3)nc2)c1 (single isomer, unassigned) [Example 20-1, {[(propan-2-yloxy)carbonyl]oxy}methyl trans-4-[(1R or 1S)-1-(6-{[4-(difluoromethyl)pyridin-2-yl]amino}-4-methyl-2,3′-bipyridin-6′-yl)-1-hydroxyethyl] cyclohexanecarboxylate]
38 | 33 nM | Cc1cc(Nc2cc(C(F)F)ccn2)nc(-c2ccc(C(C)(O)[C@H]3CC[C@H](C(=O)OC(C)OC(=O)C(C)C)CC3)nc2)c1 (single isomer, unassigned) [Example 21-5, 1-[(2-methylpropanoyl)oxy]ethyl trans-4-[(1R or 1S)-1-(6-{[4-(difluoromethyl)pyridin-2-yl]amino}-4-methyl-2,3′-bipyridin-6′-yl)-1-hydroxyethyl] cyclohexanecarboxylate]
39 | 5 nM | Cc1cc(Nc2cc(C(F)(F)F)ccn2)nc(-c2ccc(C3(O)CCN(C(=O)c4ccc5nc(C)c(C)nc5c4)CC3)nc2)c1 [Example 9-4]
40 | 12 nM | Cc1cc(Nc2cc(C(F)(F)F)ccn2)nc(-c2ccc(C3(O)CCN(C(=O)c4cc(-c5ccncc5)[nH]n4)CC3)nc2)c1 [Example 9-6]
41 | 110 nM | Cc1cc(Nc2cc(C(F)F)ccn2)nc(-c2ccc(C(C)(O)[C@H]3CC[C@H](C(=O)OC(C)OC(=O)OC(C)C)CC3)nc2)c1 (single isomer, unassigned) [Example 20-3, 1-{[(propan-2-yloxy)carbonyl]oxy}ethyl trans-4-[(1R or 1S)-1-(6-{[4-(difluoromethyl)pyridin-2-yl]amino}-4-methyl-2,3′-bipyridin-6′-yl)-1-hydroxyethyl] cyclohexanecarboxylate]
42 | 9 nM | Cc1cc(Nc2cc(C(F)(F)F)ccn2)nc(-c2ccc(C3(O)CCNCC3)nc2)c1 [Example 5-3]
43 | < 0.5 nM | Cc1cc(Nc2cc(C(F)F)ccn2)nc(-c2ccc(C(C)(O)[C@H]3CC[C@@H](C(=O)O)CC3)nc2)c1 (single isomer, unassigned) [Example 12-2, cis-4-[(1R or 1S)-(6-{[4-(difluoromethyl)pyridin-2-yl]amino}-4-methyl-2,3′-bipyridin-6′-yl)-1-hydroxyethyl]cyclohexanecarboxylic acid]
